Measured values: ChEMBL document CHEMBL3612042 (J Med Chem, 2015)
pKd: −log10 of the molar value. In brackets after ≈: the same amount, converted by molar mass.

Columns and labels:
[1] = tested on: Mycobacterium tuberculosis; assay: Antibacterial activity against Mycobacterium tuberculosis XDR1 measured at 7 to 14 days by broth microdilution method; format: functional
[2] = tested on: Mycobacterium tuberculosis; assay: Antibacterial activity against Mycobacterium tuberculosis XDR2 measured at 7 to 14 days by broth microdilution method; format: functional
[3] = tested on: Mycobacterium tuberculosis; assay: Antibacterial activity against Mycobacterium tuberculosis MDR1 measured at 7 to 14 days by broth microdilution method; format: functional
[4] = tested on: Mycobacterium tuberculosis; assay: Antibacterial activity against Mycobacterium tuberculosis MDR2 measured at 7 to 14 days by broth microdilution method; format: functional
[5] = tested on: Mycobacterium tuberculosis; assay: Antibacterial activity against Mycobacterium tuberculosis MDR3 measured at 7 to 14 days by broth microdilution method; format: functional
[6] = tested on: Mycobacterium tuberculosis; assay: Antibacterial activity against Mycobacterium tuberculosis MDR4 measured at 7 to 14 days by broth microdilution method; format: functional
[7] = tested on: Mycobacterium tuberculosis; assay: Antibacterial activity against Mycobacterium tuberculosis MDR5 measured at 7 to 14 days by broth microdilution method; format: functional
[8] = tested on: Mycobacterium tuberculosis; assay: Antibacterial activity against Mycobacterium tuberculosis MDR6 measured at 7 to 14 days by broth microdilution method; format: functional
[9] = tested on: Mycobacterium tuberculosis; assay: Antibacterial activity against Mycobacterium tuberculosis MDR7 measured at 7 to 14 days by broth microdilution method; format: functional
[10] = tested on: Mycobacterium tuberculosis; assay: Antibacterial activity against Mycobacterium tuberculosis MDR8 measured at 7 to 14 days by broth microdilution method; format: functional
[11] = tested on: Mycobacterium tuberculosis; assay: Antibacterial activity against Mycobacterium tuberculosis H37Rv measured at 10 to 14 days by broth microdilution method; format: functional
[12] = molecular target: T1, Biotin--[acetyl-CoA-carboxylase] ligase (Mycobacterium tuberculosis (strain ATCC 25618 / H37Rv), UniProt I6YFP0)
T1 sequence (I6YFP0 whole entry): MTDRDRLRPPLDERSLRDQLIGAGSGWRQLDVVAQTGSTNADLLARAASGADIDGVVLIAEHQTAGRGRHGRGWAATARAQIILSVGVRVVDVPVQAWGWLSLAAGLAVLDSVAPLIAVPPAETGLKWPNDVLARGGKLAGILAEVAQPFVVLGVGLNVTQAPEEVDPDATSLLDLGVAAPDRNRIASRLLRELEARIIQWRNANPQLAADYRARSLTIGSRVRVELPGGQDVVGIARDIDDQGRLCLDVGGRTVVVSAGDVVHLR

[13] = tested on: Mycobacterium tuberculosis H37Rv; assay: Drug uptake in Mycobacterium tuberculosis H37Rv at 25 uM after 24 hrs by LC-MS/MS analysis; format: ADME, organism-based

SMILES | MIC90 [11] [µM] | pKd [12] | other results
Nc1ncnc2c1ncn2[C@@H]1O[C@H](CNS(=O)(=O)NC(=O)CCCC[C@@H]2SC[C@@H]3NC(=O)N[C@@H]32)[C@@H](O)[C@H]1O |  |  | MIC99 [1]: 0.16 µM (≈ 0.0915 µg/mL); MIC99 [2]: 0.16 µM (≈ 0.0915 µg/mL); MIC99 [3]: 0.16 µM (≈ 0.0915 µg/mL); MIC99 [4]: 0.16 µM (≈ 0.0915 µg/mL); MIC99 [5]: 0.16 µM (≈ 0.0915 µg/mL); MIC99 [6]: 0.16 µM (≈ 0.0915 µg/mL); MIC99 [7]: 0.16 µM (≈ 0.0915 µg/mL); MIC99 [8]: 0.16 µM (≈ 0.0915 µg/mL); MIC99 [9]: 0.16 µM (≈ 0.0915 µg/mL); MIC99 [10]: 0.16 µM (≈ 0.0915 µg/mL)
Nc1ncnc2c1ncn2[C@@H]1C[C@H](CNS(=O)(=O)NC(=O)CCCC[C@@H]2SC[C@@H]3NC(=O)N[C@@H]32)[C@@H](O)[C@H]1O | > 100 | 9.12 | 
[N-]=[N+]=N[C@@H]1[C@H](O)[C@@H](CNS(=O)(=O)NC(=O)CCCC[C@@H]2SC[C@@H]3NC(=O)N[C@@H]32)O[C@H]1n1cnc2c(N)ncnc21 | 3.12 (≈ 1.86 µg/mL) | 9.03 | 
Nc1ncnc2c1ncn2[C@@H]1O[C@H](CNS(=O)(=O)NC(=O)CCCC[C@@H]2SC[C@@H]3NC(=O)N[C@@H]32)[C@@H](O)[C@H]1N | 1.25 (≈ 0.713 µg/mL) | 9.20 | 
CCN(CC)CC.Nc1ncnc2c1ncn2[C@@H]1O[C@H](CNS(=O)(=O)NC(=O)CCCC[C@@H]2SC[C@@H]3NC(=O)N[C@@H]32)[C@@H](O)[C@H]1F | 1.25 | 9.21 | Drug uptake [13]: Active
Nc1ncnc2c1ncn2[C@H]1C=C[C@@H](CNS(=O)(=O)NC(=O)CCCC[C@@H]2SC[C@@H]3NC(=O)N[C@@H]32)C1 | 3.12 (≈ 1.67 µg/mL) | 8.67 | 
CCN(CC)CC.Nc1ncnc2c1ncn2[C@@H]1O[C@H](COS(=O)(=O)NC(=O)CCCC[C@@H]2SC[C@@H]3NC(=O)N[C@@H]32)[C@@H](O)[C@@H]1F | 50 | 9.82 | Drug uptake [13]: Active
C[C@@]1(O)[C@H](O)[C@@H](COS(=O)(=O)NC(=O)CCCC[C@@H]2SC[C@@H]3NC(=O)N[C@@H]32)O[C@H]1n1cnc2c(N)ncnc21 | 50 (≈ 29.3 µg/mL) | 9.11 | 
Nc1ncnc2c1ncn2[C@H]1CNC[C@@H](COS(=O)(=O)NC(=O)CCCC[C@@H]2SC[C@@H]3NC(=O)N[C@@H]32)O1 | 3.12 (≈ 1.73 µg/mL) | 9.49 | 
Nc1ncnc2c1ncn2[C@@H]1O[C@H](CNS(=O)(=O)NC(=O)CCCC[C@@H]2SC[C@@H]3NC(=O)N[C@@H]32)C[C@H]1O | 0.78 (≈ 0.433 µg/mL) | 9.23 | 
Nc1ncnc2c1ncn2[C@H]1CC[C@@H](CNS(=O)(=O)NC(=O)CCCC[C@@H]2SC[C@@H]3NC(=O)N[C@@H]32)C1 | 1.56 (≈ 0.839 µg/mL) | 9.27 | 
